Patent US7449470B2, “Substituted pyrimidines as ligands of adenosine receptors” (Universiteit Leiden, priority 2003, dated 2008)

Target: T1, human adenosine A1 receptor (Homo sapiens, UniProt P30542)
T1 construct: expressed in transfected cells; host or cells: CHO cells
T1 sequence (P30542 1-326): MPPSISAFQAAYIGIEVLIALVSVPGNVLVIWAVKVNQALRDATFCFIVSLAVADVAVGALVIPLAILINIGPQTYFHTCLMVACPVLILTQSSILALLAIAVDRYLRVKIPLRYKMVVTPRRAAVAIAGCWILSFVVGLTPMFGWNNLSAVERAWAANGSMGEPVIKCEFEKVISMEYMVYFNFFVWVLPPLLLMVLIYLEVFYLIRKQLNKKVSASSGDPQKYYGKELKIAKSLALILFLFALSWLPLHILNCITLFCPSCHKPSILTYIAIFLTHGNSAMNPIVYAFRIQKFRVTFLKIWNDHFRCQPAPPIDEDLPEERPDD
Assay: Radioligand binding assay, displacement of [3H]DPCPX
Settings: CHO cells expressing human adenosine A1 receptors; Ki ± SEM (n = 3); read-out: A1 Ki (displacement of specific [3H]DPCPX binding)
Method: Radioligand Binding Studies [^3H]DPCPX was purchased from Amersham. All compounds made were tested in radioligand binding assays to determine their affinities at the human adenosine A1 receptor. The affinities at the A1 receptors were determined on CHO cells expressing the human receptors, using [^3H]DPCPX as the radioligand according to a previously described method.^9
Data Analysis Competition binding data were fit to a single-site binding model and plotted using the software package Prism (Graph Pad, San Diego, Calif., USA). The Cheng-Prusoff equation Ki=IC50/(1+[I]/Kd) was used to calculate Ki values, where Ki is the affinity constant for the competing ligand, [I] is the concentration of the free radioligand, and Kd is the affinity constant for the radioligand.

Row | Ki [nM] | SMILES
1 | 671 ± 113 | O=C(Nc1cc(-c2ccccc2)nc(-c2ccccc2)n1)c1ccccc1 [Compound 13, N-(2,6-Diphenyl-pyrimidin-4-yl)-benzamide]
2 | 17.6 ± 5.3 | CCCC(=O)Nc1cc(-c2ccccc2)nc(-c2ccccc2)n1 [Compound 16, N-(2,6-Diphenyl-pyrimidin-4-yl)-butyramide]
3 | 14.8 ± 2.7 | CC(C)CC(=O)Nc1cc(-c2ccccc2)nc(-c2ccccc2)n1 [Compound 18, N-(2,6-Diphenyl-pyrimidin-4-yl)-3-methyl-butyramide]
4 | 6.35 ± 0.4 | CCC(CC)C(=O)Nc1cc(-c2ccccc2)nc(-c2ccccc2)n1 [Compound 19, N-(2,6-Diphenyl-pyrimidin-4-yl)-2-ethyl-butyramide]
5 | 2.22 ± 1.1 | CCC(C)C(=O)Nc1cc(-c2ccccc2)nc(-c2ccccc2)n1 (stereo not drawn) [Compound 20, N-(2,6-Diphenyl-pyrimidin-4-yl)-2-methyl-butyramide]
6 | 27.7 ± 6.2 | CC(C)(C)C(=O)Nc1cc(-c2ccccc2)nc(-c2ccccc2)n1 [Compound 21, N-(2,6-Diphenyl-pyrimidin-4-yl)-2,2-dimethyl-propionamide]
7 | 8.75 ± 4.1 | CC(C)(C)CC(=O)Nc1cc(-c2ccccc2)nc(-c2ccccc2)n1 [Compound 22, N-(2,6-Diphenyl-pyrimidin-4-yl)-3,3-dimethyl-butyramide]
8 | 6.49 ± 2.2 | O=C(Nc1cc(-c2ccccc2)nc(-c2ccccc2)n1)C1CCC1 [Compound 23, Cyclobutanecarboxylic acid (2,6-diphenyl-pyrimidin-4-yl)-amide]
9 | 2.14 ± 0.07 | O=C(Nc1cc(-c2ccccc2)nc(-c2ccccc2)n1)C1CCCC1 [Compound 24, Cyclopentanecarboxylic acid (2,6-diphenyl-pyrimidin-4-yl)-amide]
10 | 15.5 ± 8.4 | O=C(Nc1cc(-c2ccccc2)nc(-c2ccccc2)n1)C1CCCCC1 [Compound 25, Cyclohexanecarboxylic acid (2,6-diphenyl-pyrimidin-4-yl)-amide]

Row | SMILES | Ki [nM]
11 | CC(=O)Nc1cc(-c2ccccc2)nc(-c2ccccc2)n1 [Compound 14, N-(2,6-Diphenyl-pyrimidin-4-yl)-acetamide] | 37.5 ± 8.1
12 | CCC(=O)Nc1cc(-c2ccccc2)nc(-c2ccccc2)n1 [Compound 15, N-(2,6-Diphenyl-pyrimidin-4-yl)-propionamide] | 9.5 ± 4.6
